Measurements: US11400058B2, “Intravenous formulations of coenzyme Q10 (CoQ10) and methods of use thereof” (Berg LLC, priority 2010, dated 2022)
Marks after values point to notes of the source that are not given here.

Experiment: 4-week repeat-dose toxicology study in rats with 2-week recovery (Study 20000328)
Details: for Died or Sacrificed Moribund: animals of 15
[1] = 62.5 mg/kg M, end of dosing, animals of 10
[2] = 62.5 mg/kg M, end of recovery, animals of 5
[3] = 125 mg/kg F, end of dosing, animals of 10
[4] = 125 mg/kg F, end of recovery, animals of 5

COC1=C(OC)C(=O)C(C/C=C(\C)CC/C=C(\C)CC/C=C(\C)CC/C=C(\C)CC/C=C(\C)CC/C=C(\C)CC/C=C(\C)CC/C=C(\C)CC/C=C(\C)CCC=C(C)C)=C(C)C1=O [CoQ10, Coenzyme Q10]
Spleen Histiocytic Infiltration, Mild [1]: 0 | Spleen Histiocytic Infiltration, Moderate [1]: 1 | ALT (62.5 mg/kg M, end of recovery): 20 IU/L | APPT (62.5 mg/kg M, end of recovery): 16.7 s | AST (62.5 mg/kg M, end of recovery): 79 IU/L | Body Weight, percent difference from controls (62.5 mg/kg M, end of recovery): +7.4% | Food Consumption, percent difference from controls (62.5 mg/kg M, end of recovery): +5.8% | GGT (62.5 mg/kg M, end of recovery): 0.00 IU/L | Liver weight (absolute), percent difference from controls (62.5 mg/kg M, end of recovery): +5.0% | Spleen weight (absolute), percent difference from controls (62.5 mg/kg M, end of recovery): −22.2% | Adrenal Gland Vacuolation [2]: 5 | Adrenal Gland Vacuolation, Marked [2]: 0 | Adrenal Gland Vacuolation, Mild [2]: 3 | Adrenal Gland Vacuolation, Minimal [2]: 2 | Adrenal Gland Vacuolation, Moderate [2]: 0 | Gross Pathology: Enlarged Spleen [2]: 0 | Gross Pathology: Pale Iliac Lymph Node [2]: 2 | Gross Pathology: Pale Liver [2]: 2 | Gross Pathology: Pale Pancreatic Lymph Node [2]: 1 | Liver Focal Necrosis [2]: 0 | Liver Focal Necrosis, Mild [2]: 0 | Liver Focal Necrosis, Minimal [2]: 0 | Liver Histiocytic Infiltration [2]: 1 | Liver Histiocytic Infiltration, Mild [2]: 0 | Liver Histiocytic Infiltration, Minimal [2]: 1 | Liver Histiocytic Infiltration, Moderate [2]: 0 | Liver Multifocal Necrosis [2]: 0 | Liver Multifocal Necrosis, Mild [2]: 0 | Liver Multifocal Necrosis, Moderate [2]: 0 | Liver Vacuolation [2]: 5 | Liver Vacuolation, Mild [2]: 1 | Liver Vacuolation, Minimal [2]: 4 | Liver Vacuolation, Moderate [2]: 0 | Lymph Node, Man. Histiocytic Infiltration [2]: 4 | Lymph Node, Man. Histiocytic Infiltration, Mild [2]: 0 | Lymph Node, Man. Histiocytic Infiltration, Minimal [2]: 4 | Lymph Node, Man. Histiocytic Infiltration, Moderate [2]: 0 | Lymph Node, Mes. Histiocytic Infiltration [2]: 5 | Lymph Node, Mes. Histiocytic Infiltration, Mild [2]: 1 | Lymph Node, Mes. Histiocytic Infiltration, Minimal [2]: 4 | Spleen Histiocytic Infiltration [2]: 2 | Spleen Histiocytic Infiltration, Marked [2]: 0 | Spleen Histiocytic Infiltration, Mild [2]: 0 | Spleen Histiocytic Infiltration, Minimal [2]: 2 | Spleen Histiocytic Infiltration, Moderate [2]: 0 | Died or Sacrificed Moribund (125 mg/kg F): 0 | ALT (125 mg/kg F, end of dosing): 20 IU/L | APPT (125 mg/kg F, end of dosing): 14.4* seconds | AST (125 mg/kg F, end of dosing): 76* IU/L | Body Weight, percent difference from controls (125 mg/kg F, end of dosing): −5.5% | Eosinophils (125 mg/kg F, end of dosing): 0.08 10^3/cmm | Erythrocytes (125 mg/kg F, end of dosing): 6.90* 10^6/cmm | Food Consumption, percent difference from controls (125 mg/kg F, end of dosing): −12.5* % | GGT (125 mg/kg F, end of dosing): 0.53 IU/L | Hematocrit (125 mg/kg F, end of dosing): 39.1* % | Hemoglobin (125 mg/kg F, end of dosing): 13.5 g/dL | Leukocytes (125 mg/kg F, end of dosing): 9.49 10^3/cmm | Liver weight (absolute), percent difference from controls (125 mg/kg F, end of dosing): −0.6% | Lymphocytes (125 mg/kg F, end of dosing): 7.35 10^3/cmm | Neutrophils (125 mg/kg F, end of dosing): 1.64 10^3/cmm | Spleen weight (absolute), percent difference from controls (125 mg/kg F, end of dosing): −11.2% | Bone Marrow, Sternum Hyperplasia [3]: 0 | Bone Marrow, Sternum Hyperplasia, Mild [3]: 0 | Bone Marrow, Sternum Hyperplasia, Minimal [3]: 0 | Gross Pathology: Enlarged Pancreatic Lymph Nodes [3]: 1 | Gross Pathology: Pale Adrenal [3]: 0 | Gross Pathology: Pale Liver [3]: 10 | Gross Pathology: Pale Lymph Nodes [3]: 0 | Gross Pathology: Pale Ovaries [3]: 1 | Gross Pathology: Pale Pituitary [3]: 0 | Gross Pathology: Pale SQ Skin [3]: 3 | Liver Focal Necrosis [3]: 0 | Liver Focal Necrosis, Minimal [3]: 0 | Liver Histiocytic Infiltration [3]: 9 | Liver Histiocytic Infiltration, Mild [3]: 7 | Liver Histiocytic Infiltration, Minimal [3]: 1 | Liver Histiocytic Infiltration, Moderate [3]: 1 | Liver Vacuolation [3]: 10 | Liver Vacuolation, Mild [3]: 4 | Liver Vacuolation, Minimal [3]: 6 | Lymph Node, Man. Histiocytic Infiltration [3]: 3 | Lymph Node, Man. Histiocytic Infiltration, Mild [3]: 0 | Lymph Node, Man. Histiocytic Infiltration, Minimal [3]: 2 | Lymph Node, Man. Histiocytic Infiltration, Moderate [3]: 1 | Lymph Node, Mes. Histiocytic Infiltration [3]: 10 | Lymph Node, Mes. Histiocytic Infiltration, Mild [3]: 5 | Lymph Node, Mes. Histiocytic Infiltration, Minimal [3]: 5 | Lymph Node, Mes. Histiocytic Infiltration, Moderate [3]: 0 | Ovary Histiocytic Infiltration [3]: 10 | Ovary Histiocytic Infiltration, Mild [3]: 0 | Ovary Histiocytic Infiltration, Minimal [3]: 10 | Ovary Histiocytic Infiltration, Moderate [3]: 0 | Skin, Dermis Histiocytic Infiltration [3]: 2 | Skin, Dermis Histiocytic Infiltration, Marked [3]: 0 | Skin, Dermis Histiocytic Infiltration, Mild [3]: 1 | Skin, Dermis Histiocytic Infiltration, Moderate [3]: 1 | Skin, SQ Histiocytic Infiltration [3]: 2 | Skin, SQ Histiocytic Infiltration, Mild [3]: 2 | Spleen Histiocytic Infiltration [3]: 9 | Spleen Histiocytic Infiltration, Marked [3]: 1 | Spleen Histiocytic Infiltration, Mild [3]: 4 | Spleen Histiocytic Infiltration, Moderate [3]: 3 | ALT (125 mg/kg F, end of recovery): 21 IU/L | APPT (125 mg/kg F, end of recovery): 15.4 s | AST (125 mg/kg F, end of recovery): 68 IU/L | Body Weight, percent difference from controls (125 mg/kg F, end of recovery): −3.9% | Food Consumption, percent difference from controls (125 mg/kg F, end of recovery): −10.5% | GGT (125 mg/kg F, end of recovery): 0.63* IU/L | Liver weight (absolute), percent difference from controls (125 mg/kg F, end of recovery): +3.5% | Spleen weight (absolute), percent difference from controls (125 mg/kg F, end of recovery): −3.4% | Adrenal Gland Vacuolation [4]: 5 | Adrenal Gland Vacuolation, Marked [4]: 0 | Adrenal Gland Vacuolation, Mild [4]: 4 | Adrenal Gland Vacuolation, Minimal [4]: 0 | Adrenal Gland Vacuolation, Moderate [4]: 1 | Gross Pathology: Enlarged Spleen [4]: 0 | Gross Pathology: Pale Iliac Lymph Node [4]: 3 | Gross Pathology: Pale Liver [4]: 5 | Gross Pathology: Pale Ovaries [4]: 0 | Gross Pathology: Pale Pancreatic Lymph Node [4]: 2 | Liver Focal Necrosis [4]: 0 | Liver Focal Necrosis, Mild [4]: 0 | Liver Focal Necrosis, Minimal [4]: 0 | Liver Histiocytic Infiltration [4]: 5 | Liver Histiocytic Infiltration, Mild [4]: 3 | Liver Histiocytic Infiltration, Minimal [4]: 2 | Liver Histiocytic Infiltration, Moderate [4]: 0 | Liver Multifocal Necrosis [4]: 1 | Liver Multifocal Necrosis, Mild [4]: 1 | Liver Multifocal Necrosis, Moderate [4]: 0 | Liver Vacuolation [4]: 5 | Liver Vacuolation, Mild [4]: 4 | Liver Vacuolation, Minimal [4]: 0 | Liver Vacuolation, Moderate [4]: 1 | Lymph Node, Man. Histiocytic Infiltration [4]: 1 | Lymph Node, Man. Histiocytic Infiltration, Mild [4]: 0 | Lymph Node, Man. Histiocytic Infiltration, Minimal [4]: 2 | Lymph Node, Man. Histiocytic Infiltration, Moderate [4]: 0 | Lymph Node, Mes. Histiocytic Infiltration [4]: 5 | Lymph Node, Mes. Histiocytic Infiltration, Mild [4]: 1 | Lymph Node, Mes. Histiocytic Infiltration, Minimal [4]: 4 | Ovary Histiocytic Infiltration [4]: 5 | Ovary Histiocytic Infiltration, Mild [4]: 2 | Ovary Histiocytic Infiltration, Minimal [4]: 3 | Ovary Histiocytic Infiltration, Moderate [4]: 0 | Spleen Histiocytic Infiltration [4]: 2 | Spleen Histiocytic Infiltration, Marked [4]: 0 | Spleen Histiocytic Infiltration, Mild [4]: 0 | Spleen Histiocytic Infiltration, Minimal [4]: 2 | Spleen Histiocytic Infiltration, Moderate [4]: 0 | Died or Sacrificed Moribund (125 mg/kg M): 0 | ALT (125 mg/kg M, end of dosing): 25 IU/L | APPT (125 mg/kg M, end of dosing): 15.9* seconds | AST (125 mg/kg M, end of dosing): 83 IU/L | Body Weight, percent difference from controls (125 mg/kg M, end of dosing): −8.7* % | Eosinophils (125 mg/kg M, end of dosing): 0.08 10^3/cmm
